Test results: ChEMBL document CHEMBL4219171, “Synthesis and investigations into the anticancer and antibacterial activity studies of β-carboline chalcones and their bromide salts” (Bioorg Med Chem Lett, 2018)
≈ marks a conversion by molar mass, not a printed value. Calls of active or inactive are those of the source. The rule behind the calls is not given here.

What was measured:
[1] = tested on: NIH3T3; assay: Cytotoxicity against mouse NIH/3T3 cells after 48 hrs by MTT assay; type: cell-based; settings: NIH3T3, 48 h
[2] = tested on: Staphylococcus aureus; assay: Antibacterial activity against Staphylococcus aureus MTCC 96 assessed as zone of inhibition measured after 18 hrs by disc diffusion method; type: functional
[3] = tested on: Enterobacter cloacae; assay: Antibacterial activity against Enterobacter cloacae NAIMCC-B-02025 assessed as zone of inhibition measured after 18 hrs by disc diffusion method; type: functional
[4] = tested on: LNCaP C4-2; assay: Cytotoxicity against human C4-2 cells after 48 hrs by MTT assay; type: functional, cell-based; settings: LNCaP C4-2, 48 h
[5] = tested on: BXPC-3; assay: Cytotoxicity against human BxPC3 cells after 48 hrs by MTT assay; type: functional, cell-based; settings: BXPC-3, 48 h
[6] = tested on: MDA-MB-231; assay: Cytotoxicity against human MDA-MB-231 cells after 48 hrs by MTT assay; type: functional, cell-based; settings: MDA-MB-231, 48 h
[7] = tested on: HeLa; assay: Cytotoxicity against human HeLa cells after 48 hrs by MTT assay; type: functional, cell-based
[8] = tested on: HEK-293T; assay: Cytotoxicity against human HEK293T cells after 48 hrs by MTT assay; type: cell-based
[9] = tested on: Bacillus subtilis; assay: Antibacterial activity against Bacillus subtilis MTCC 121 assessed as zone of inhibition measured after 18 hrs by disc diffusion method; type: functional
[10] = tested on: Pseudomonas aeruginosa; assay: Antibacterial activity against Pseudomonas aeruginosa MTCC 424 assessed as zone of inhibition measured after 18 hrs by disc diffusion method; type: functional
[11] = tested on: PC-3; assay: Cytotoxicity against human PC3 cells after 48 hrs by MTT assay; type: functional, cell-based; settings: PC-3, 48 h
[12] = tested on: MDA-MB-231; assay: Induction of apoptosis in human MDA-MB-231 cells assessed as morphological changes after 24 hrs by acridine orange/ethidium bromide-dual staining based fluorescence microscopic method; type: functional, cell-based
[13] = tested on: Staphylococcus aureus; assay: Antibacterial activity against Staphylococcus aureus MTCC 96 after 24 hrs by broth microdilution assay; type: functional; settings: MTCC 96, 24 h
[14] = tested on: Bacillus subtilis; assay: Antibacterial activity against Bacillus subtilis MTCC 121 after 24 hrs by broth microdilution assay; type: functional; settings: MTCC 121, 24 h
[15] = tested on: Enterobacter cloacae; assay: Antibacterial activity against Enterobacter cloacae NAIMCC-B-02025 after 24 hrs by broth microdilution assay; type: functional; settings: NAIMCC-B-02025, 24 h
[16] = tested on: Escherichia coli; assay: Antibacterial activity against Escherichia coli MTCC 1652 assessed as zone of inhibition measured after 18 hrs by disc diffusion method; type: functional

Compound | MIC [13] [µM] | MIC [14] [µM] | MIC [15] [µM] | IC50 [1] [µM] | inhibition zone (IZ) [2] [mm] | inhibition zone (IZ) [3] [mm] | IC50 [4] [µM] | IC50 [5] [µM] | IC50 [6] [µM] | IC50 [7] [µM] | IC50 [8] [µM] | inhibition zone (IZ) [9] [mm] | inhibition zone (IZ) [10] [mm] | IC50 [11] [µM] | Activity [12] | inhibition zone (IZ) [16] [mm]
C#CC[n+]1ccc2c([nH]c3ccccc32)c1C(=O)/C=C/c1ccc2c(c1)OCO2.[Br-] | – | – | – | 72.1 | 9 | 6 | 24.4 | 30.1 | 21.2 | 25.3 | 19.1 | 7 | 7 | 29.6 | – | –
O=C(/C=C/c1ccc2c(c1)OCO2)c1nccc2c1[nH]c1ccccc12 | – | – | – | > 100 | – | – | > 100 | > 100 | > 100 | > 100 | > 100 | – | – | > 100 | – | –
COc1cccc2c1C(=O)c1c(O)c3c(c(O)c1C2=O)C[C@@](O)(C(=O)CO)C[C@@H]3O[C@H]1C[C@H](N)[C@H](O)[C@H](C)O1 [DOXORUBICIN] | – | – | – | 21.3 | – | – | 3.2 | 13.6 | 7.85 | – | 3.59 | – | – | 10.2 | Active | –
O=C(N[C@H](CO)[C@H](O)c1ccc([N+](=O)[O-])cc1)C(Cl)Cl [CHLORAMPHENICOL] | 17 (≈ 5.49 µg/mL) | 32 (≈ 10.3 µg/mL) | 24 (≈ 7.76 µg/mL) | – | 22 | 20 | – | – | – | – | – | 22 | 21 | – | – | 22
O=C(/C=C/c1ccc(C(F)(F)F)cc1)c1nccc2c1[nH]c1ccccc12 | 710 (≈ 260 µg/mL) | – | 726 (≈ 266 µg/mL) | – | 11 | 11 | – | – | – | – | – | – | – | – | – | 10
C#CC[n+]1ccc2c([nH]c3ccccc32)c1C(=O)/C=C/c1ccc(OC)cc1.[Br-] | – | – | – | > 100 | 9 | 6 | > 100 | > 100 | > 100 | > 100 | > 100 | – | 7 | > 100 | – | –
CCCC[n+]1ccc2c([nH]c3ccccc32)c1C(=O)/C=C/c1ccc2c(c1)OCO2.[Br-] | – | – | – | > 100 | 9 | – | > 100 | > 100 | > 100 | > 100 | > 100 | 7 | – | > 100 | – | –
O=C(/C=C/c1ccc2c(c1)OCO2)c1c2[nH]c3ccccc3c2cc[n+]1Cc1ccccc1.[Br-] | – | – | – | 82.2 | 7 | 8 | 42.1 | 55.3 | 48.2 | 45.2 | 55.1 | 6 | – | 79 | – | –
CCCC[n+]1ccc2c([nH]c3ccccc32)c1C(=O)/C=C/c1ccc(OC)cc1.[Br-] | – | – | – | 74.6 | 9 | – | 38.8 | 50.8 | 40.9 | 45 | 35.2 | – | – | 65 | – | –

Continued, in another order:

MIC [13] [µM] | MIC [14] [µM] | MIC [15] [µM] | Compound | IC50 [1] [µM] | inhibition zone (IZ) [2] [mm] | inhibition zone (IZ) [3] [mm] | IC50 [4] [µM] | IC50 [5] [µM] | IC50 [6] [µM] | IC50 [7] [µM] | IC50 [8] [µM] | inhibition zone (IZ) [9] [mm] | inhibition zone (IZ) [10] [mm] | IC50 [11] [µM] | Activity [12] | inhibition zone (IZ) [16] [mm]
820 (≈ 256 µg/mL) | 720 (≈ 225 µg/mL) | 828 (≈ 259 µg/mL) | Cc1ccc(/C=C/C(=O)c2nccc3c2[nH]c2ccccc23)cc1 | > 100 | 10 | 10 | > 100 | > 100 | > 100 | > 100 | > 100 | 12 | – | > 100 | – | –
– | – | 590 | C#CC[n+]1ccc2c([nH]c3ccccc32)c1C(=O)/C=C/c1cc(OC)c(OC)c(OC)c1.[Br-] | 88 | 9 | 13 | 65.5 | 72 | 59.6 | 70.1 | 55.1 | – | 9 | 61 | – | –
> 900 | – | 834 (≈ 324 µg/mL) | COc1cc(/C=C/C(=O)c2nccc3c2[nH]c2ccccc23)cc(OC)c1OC | > 100 | 7 | 10 | 71.6 | 70.8 | 71.5 | 75.2 | 82.1 | – | – | > 100 | – | –
812 | – | 806 | CCCC[n+]1ccc2c([nH]c3ccccc32)c1C(=O)/C=C/c1cc(OC)c(OC)c(OC)c1.[Br-] | 68.6 | 10 | 10 | 39.6 | 25.1 | 32 | 35.6 | 34.4 | – | 12 | 40.1 | – | 8
– | – | 726 | COc1cc(/C=C/C(=O)c2c3[nH]c4ccccc4c3cc[n+]2Cc2ccccc2)cc(OC)c1OC.[Br-] | 55.2 | 9 | 12 | 16.1 | 20 | 16 | 22.1 | 17.2 | 7 | – | 22 | Active | –
– | 838 (≈ 250 µg/mL) | – | O=C(/C=C/c1ccccc1)c1nccc2c1[nH]c1ccccc12 | > 100 | – | – | 80.2 | 72 | 71.1 | 82.4 | 65.6 | 9 | – | 93 | – | –
715 (≈ 244 µg/mL) | 870 (≈ 297 µg/mL) | 880 (≈ 300 µg/mL) | CN(C)c1ccc(/C=C/C(=O)c2nccc3c2[nH]c2ccccc23)cc1 | – | 11 | 8 | – | – | – | – | – | 8 | – | – | – | 8
440 | 875 | 874 | COc1ccc(/C=C/C(=O)c2c3[nH]c4ccccc4c3cc[n+]2Cc2ccccc2)cc1.[Br-] | 85.3 | 15 | 8 | 65.5 | 50.2 | 52.2 | 60.1 | 41.4 | 8 | – | 88.3 | – | 8
733 (≈ 241 µg/mL) | 885 (≈ 291 µg/mL) | 846 (≈ 278 µg/mL) | COc1ccc(/C=C/C(=O)c2nccc3c2[nH]c2ccccc23)cc1 | > 100 | 12 | 9 | > 100 | > 100 | > 100 | > 100 | > 100 | 8 | 8 | > 100 | – | –
